Reference: patent US11666558B2, “Methods of treating intraocular pressure with activators of Tie-2” (EyePoint Pharmaceuticals, Inc., priority 2015, dated 2023)
“Also recorded” adds a separate entry of the source. Counter-ions that a name gives are not always drawn. Like-named read-outs stand apart in the source and are kept apart here.

Legend:
Assay type in all cases: in vivo, New Zealand White rabbits
[1] = Ophthalmic examination (slit-lamp biomicroscopy, modified McDonald-Shadduck Scoring System) after repeated dosing
Description: Prior to placement on study, each animal underwent an ophthalmic examination (slitlamp biomicroscopy and indirect ophthalmoscopy). Ocular findings were scored according to a modified McDonald-Shadduck Scoring System and recorded on a standardized data sheet. The acceptance criteria for placement on study were scores of “0” for all variables.
Ophthalmic examination (slit-lamp biomicroscopy only) was performed at baseline (prior to the start of dosing) and on Days 1, 4, and 8. Ocular findings were scored according to a modified McDonald-Shadduck Scoring System. A slit lamp was used to observe conjunctival discharge, […], […], the cornea, the surface area of cornea involvement, pannus, pupillary response, aqueous flare, cellular flare, iris involvement, and the lens. An indirect ophthalmoscope was used to observe the vitreous, vitral hemorrhage, retinal detachment, retinal hemorrhage, and choroidal/retinal inflammation. Animals were prepared for observation by using a solution (atropine, tropicaminde, or phenylephrine) to dilate the pupils.
Conjunctival discharge was defined as a whitish gray precipitate from the eye. Scoring was as follows.
Conjunctival congestion causes the blood vessels of the eye to become enlarged. Scoring was as follows.
Conjunctival swelling, defined as swelling of the conjunctiva, was scored as follows.

[2] = Plasma concentrations and pharmacokinetic parameters after topical ocular, subcutaneous and intravitreal administration; conditions: for AUC(0-t): read-out: AUClast (± SE); for concentration at 0.5 hr / concentration at 0.5 h: 0.50 hr
Description: To measure the concentration of Compound 1 in plasma and ocular tissues following topical ocular, subcutaneous, and intravitreal administration, New Zealand White rabbits were administered Compound 1, and plasma and ocular samples were collected at pre-determined time points. Compound 1 formulations were prepared fresh on each day of dosing.
New Zealand White rabbits weighing 2.5 to 3.5 kg were used on this study. Rabbits were housed one per cage. Animals were not fasted and only healthy animals with no ocular illness were used. Two rabbits per group were sacrificed at each of four ocular tissue sampling time points for a total of eight rabbits per group.
Animals were anesthetized for ocular (topical) and intravitreal dosing following the 12IA7 IACUC protocol. Each rabbit received a bolus dose of test formulation either via topical ocular administration 3 times daily on Days 1 and 2 (at 0, 6, and 12 hours), and once on Day 3 (at 0 hours) into both eyes; via intravitreal administration into both eyes once on Day 1 (at 0 hours); or via subcutaneous administration 2 times daily on Days 1 and 2 (at 0 and 8 hours) and once daily on Day 3 (at 0 hours). Doses were given within an approximately 1 hour window each day where applicable.
Each blood sample was collected on Day 3 post dose at pre-determined time points from the rabbits via an ear vessel and placed into chilled polypropylene tubes containing sodium heparin as an anticoagulant. Samples were spun by centrifuge at 4° C. and 3,000×g for 5 minutes. Samples were maintained chilled throughout processing. Each plasma sample was placed on dry ice and stored in a freezer at −60° C. to −80° C. pending bioanalysis.
An LC-MS/MS method was developed for the determination of Compound 1 in rabbit aqueous tissues (plasma, aqueous and vitreous humor) and solid ocular tissue samples. A pre-study standard curve was analyzed to determine the specificity, range, and lower limit of quantitation of the method. Plasma and tissue homogenate study samples were extracted and analyzed. All the samples were treated identically to the standards.
One eight-point standard curve was used in each analytical batch. To be accepted, each batch must have had at least five of eight standards with accuracy within ±20% of nominal, except at the lower limit of quantification (LLOQ), where ±25% was acceptable.
Pharmacokinetic parameters were calculated from the time course of the plasma concentration. The maximum plasma concentration (Cmax) and time to the maximum plasma drug concentration (Tmax) were the observed values for each concentration-time profiles. The area under the plasma drug concentration-time curve (AUClast, with last being from time 0 to the last quantifiable point) was calculated using the trapezoidal formula. The mean residence time MRTlast was calculated as a ratio of AUMClast (area under the first movement curve) to AUClast.

[3] = General health observations after repeated dosing; conditions: repeated topical (0.45 or 1.2 mg/eye) and subcutaneous (10 mg/kg) dosing over 7 days
Description: Animals were observed within their cages once daily throughout the study period. […] General health observations were recorded daily beginning on Day 1 and continuing throughout the course of the study.

[4] = New Zealand White, rabbit, plasma, other: intravitreal, 1.55 mg/kg, plasma, intravitreal 2.5 mg/eye (~1.55 mg/kg), solution
[5] = New Zealand White, rabbit, plasma, other: intravitreal, 2.5 mg, plasma, intravitreal 2.5 mg/eye (~1.55 mg/kg), solution
[6] = New Zealand White, rabbit, plasma, other: intravitreal, 2.5 mg/eye, intravitreal 2.5 mg/eye (~1.55 mg/kg), solution, read-out: plasma Average
[7] = New Zealand White, rabbit, plasma, other: intravitreal, 2.5 mg/eye, intravitreal 2.5 mg/eye (~1.55 mg/kg), solution, read-out: plasma Conc., individual rabbit
[8] = New Zealand White, rabbit, plasma, sc, 5 mg/kg, subcutaneous 5 mg/kg/dose, solution
[9] = New Zealand White, rabbit, plasma, subcutaneous, 5 mg/kg/dose, subcutaneous 5 mg/kg/dose, solution, read-out: plasma Average
[10] = New Zealand White, rabbit, plasma, subcutaneous, 5 mg/kg/dose, subcutaneous 5 mg/kg/dose, solution, read-out: plasma Conc., individual rabbit
[11] = New Zealand White, rabbit, plasma, topical or ocular, 0.7 mg/kg, topical ocular 1.2 mg/eye (~0.7 mg/kg/dose), solution
[12] = New Zealand White, rabbit, plasma, topical or ocular, 1.2 mg, topical ocular 1.2 mg/eye (~0.7 mg/kg/dose), solution
[13] = New Zealand White, rabbit, plasma, topical, 1.2 mg/eye, topical ocular 1.2 mg/eye (~0.7 mg/kg/dose), read-out: plasma Average
[14] = plasma, intravitreal solution, normalized by 1.55 mg/kg
[15] = plasma, subcutaneous solution, normalized by 5 mg/kg
[16] = subcutaneous administration, sodium salt solution

mild conjunctival congestion (scores=1), animals affected ([1]; Group 2, 0.45 mg/eye topical BID, Day 1): all five animals
mild conjunctival congestion (scores=1), animals affected ([1]; Group 2, 0.45 mg/eye topical BID, Day 4): two animals
mild conjunctival congestion (scores=1), animals affected ([1]; Group 3, 1.2 mg/eye topical BID, Day 1): two animals
mild conjunctival congestion (scores=1), animals affected ([1]; Group 3, 1.2 mg/eye topical BID, Day 4): two animals
mild conjunctival congestion (scores=1), animals affected ([1]; Group 4, 1.2 mg/eye topical QD, Day 1): one animal
mild conjunctival congestion (scores=1), animals affected ([1]; Group 4, 1.2 mg/eye topical QD, Day 4): one animal
mild conjunctival congestion (scores=1), animals affected ([1]; Group 5, 10 mg/kg subcutaneous BID, Day 1): three animals
mild conjunctival congestion (scores=1), animals affected ([1]; Group 5, 10 mg/kg subcutaneous BID, Day 4): none
ocular anomalies ([1]; all groups, Day 8): No ocular anomalies
AUC(0-inf) [2, 4]: 956 ng·h/mL
Cmax [2, 4]: 39.8 ng/mL
MRT last [2, 4]: 15.1 h
half-life [2, 4]: 8.08 h
AUC(0-t) [2, 4]: 953 ng·h/mL
Tmax ([2]; New Zealand White, rabbit, plasma, other: intravitreal, 1.55 mg/kg, plasma, intravitreal 2.5 mg/eye (~1.55 mg/kg), solution, read-out: tmax): 3 h
AUC(0-inf) [2, 5]: 956 ng·h/mL
Cmax [2, 5]: 39.8 ± 2.3 ng/mL
MRT last [2, 5]: 15.1 h
half-life [2, 5]: 8.08 h
AUC(0-t) [2, 5]: 953 ± 91.1 ng·h/mL
Tmax ([2]; New Zealand White, rabbit, plasma, other: intravitreal, 2.5 mg, plasma, intravitreal 2.5 mg/eye (~1.55 mg/kg), solution, read-out: tmax): 3 h
concentration at 1 h ([2]; New Zealand White, rabbit, plasma, other: intravitreal, 2.5 mg/eye, intravitreal 2.5 mg/eye (~1.55 mg/kg), solution, 1.0 hr, read-out: plasma Average): 32.3 ng/mL
concentration at 1 h ([2]; New Zealand White, rabbit, plasma, other: intravitreal, 2.5 mg/eye, intravitreal 2.5 mg/eye (~1.55 mg/kg), solution, 1.0 hr, read-out: plasma Conc., individual rabbit): 33.2 ng/mL
concentration at 3 h [2, 6]: 39.8 ng/mL
concentration at 3 h [2, 7]: 37.5 ng/mL
concentration at 6 h ([2]; New Zealand White, rabbit, plasma, other: intravitreal, 2.5 mg/eye, intravitreal 2.5 mg/eye (~1.55 mg/kg), solution, 6.0 hr, read-out: plasma Average): 36.8 ng/mL
concentration at 6 hr ([2]; New Zealand White, rabbit, plasma, other: intravitreal, 2.5 mg/eye, intravitreal 2.5 mg/eye (~1.55 mg/kg), solution, 6.0 hr, read-out: plasma Conc., individual rabbit): 44.3 ng/mL
concentration at 24 hr [2, 6]: 16.9 ng/mL
concentration at 24 hr [2, 7]: 19 ng/mL
concentration at 48 hr [2, 6]: 2.58 ng/mL
concentration at 48 hr [2, 7]: 2.7 ng/mL
concentration at 72 hr [2, 6]: 0.27 ng/mL
concentration at 72 hr [2, 7]: 0.215 ng/mL
AUC(0-t) ([2]; New Zealand White, rabbit, plasma, sc, 5 mg/kg, plasma, subcutaneous 5 mg/kg/dose, solution): 1560 ± 195 ng·h/mL
Tmax ([2]; New Zealand White, rabbit, plasma, sc, 5 mg/kg, plasma, subcutaneous 5 mg/kg/dose, solution, read-out: tmax): 0.25 h
Tmax ([2]; New Zealand White, rabbit, plasma, sc, 5 mg/kg, subcutaneous administration, solution, read-out: Mean plasma Tmax (converted)): 0.25 h
AUC(0-inf) [2, 8]: 1560 ng·h/mL
Cmax [2, 8]: 1520 ± 115 ng/mL
MRT last [2, 8]: 0.87 h
half-life [2, 8]: 0.47 h
concentration at 0.25 hr [2, 9]: 1520 ng/mL
concentration at 0.25 hr [2, 10]: 1640 ng/mL
concentration at 0.5 hr [2, 9]: 1100 ng/mL
concentration at 0.5 hr [2, 10]: 883 ng/mL
concentration at 1 hr ([2]; New Zealand White, rabbit, plasma, subcutaneous, 5 mg/kg/dose, subcutaneous 5 mg/kg/dose, solution, 1.0 hr, read-out: plasma Average): 646 ng/mL
concentration at 1 h ([2]; New Zealand White, rabbit, plasma, subcutaneous, 5 mg/kg/dose, subcutaneous 5 mg/kg/dose, solution, 1.0 hr, read-out: plasma Conc., individual rabbit): 664 ng/mL
concentration at 2 h ([2]; New Zealand White, rabbit, plasma, subcutaneous, 5 mg/kg/dose, subcutaneous 5 mg/kg/dose, solution): 180 ng/mL
concentration at 4 h [2, 9]: 7.76 ng/mL
concentration at 4 h [2, 10]: 7.98 ng/mL
AUC(0-t) ([2]; New Zealand White, rabbit, plasma, topical or ocular, 0.7 mg/kg, plasma, topical ocular 1.2 mg/eye (~0.7 mg/kg/dose), solution): 11.8 ng·h/mL
Tmax ([2]; New Zealand White, rabbit, plasma, topical or ocular, 0.7 mg/kg, plasma, topical ocular 1.2 mg/eye (~0.7 mg/kg/dose), solution, read-out: tmax): 4 h
Cmax [2, 11]: 7.48 ng/mL
MRT last [2, 11]: 2.98 h
AUC(0-t) ([2]; New Zealand White, rabbit, plasma, topical or ocular, 1.2 mg, plasma, topical ocular 1.2 mg/eye (~0.7 mg/kg/dose), solution): 11.8 ± 5.7 ng·h/mL
Tmax ([2]; New Zealand White, rabbit, plasma, topical or ocular, 1.2 mg, plasma, topical ocular 1.2 mg/eye (~0.7 mg/kg/dose), solution, read-out: tmax): 4 h
Cmax [2, 12]: 7.48 ± 5.53 ng/mL
MRT last [2, 12]: 2.98 h
concentration at 0.5 h [2, 13]: 3.03 ng/mL
concentration at 0.5 h ([2]; New Zealand White, rabbit, plasma, topical, 1.2 mg/eye, topical ocular 1.2 mg/eye (~0.7 mg/kg/dose), read-out: plasma Conc., individual rabbit): 3.84 ng/mL
concentration at 1 h ([2]; New Zealand White, rabbit, plasma, topical, 1.2 mg/eye, topical ocular 1.2 mg/eye (~0.7 mg/kg/dose), 1.0 hr, read-out: plasma Average): 1.46 ng/mL
concentration at 1 h ([2]; New Zealand White, rabbit, plasma, topical, 1.2 mg/eye, topical ocular 1.2 mg/eye (~0.7 mg/kg/dose), 1.0 hr, read-out: plasma Conc., individual rabbit): 1.28 ng/mL
concentration at 2 h ([2]; New Zealand White, rabbit, plasma, topical, 1.2 mg/eye, topical ocular 1.2 mg/eye (~0.7 mg/kg/dose)): 1.14 ng/mL
concentration at 4 h [2, 13]: 7.48 ng/mL
Mean plasma Cmax, fold higher than Compound 1 (free acid) suspension ([2]; intravitreal administration, sodium salt solution): approximately 2 fold
Dose normalized AUClast [2, 14]: 615 kg·ng·h/mL/mg
Dose normalized AUC∞ [2, 14]: 617 kg·ng·h/mL/mg
Dose normalized AUClast ([2]; plasma, intravitreal solution, normalized by 1.55 mg/kg, listed as Compound 1 (sodium salt)): 615 ± 58.8 kg·ng·h/mL/mg
Dose normalized AUClast [2, 15]: 311 kg·ng·h/mL/mg
Dose normalized AUC∞ [2, 15]: 312 kg·ng·h/mL/mg
Dose normalized AUClast ([2]; plasma, subcutaneous solution, normalized by 5 mg/kg, listed as Compound 1 (sodium salt)): 311 ± 38.9 kg·ng·h/mL/mg
Dose normalized AUClast ([2]; plasma, topical ocular, normalized by 0.7 mg/kg): 16.8 kg·ng·h/mL/mg
Dose normalized AUClast ([2]; plasma, topical ocular, normalized by 0.7 mg/kg, listed as Compound 1 (sodium salt)): 16.8 ± 8.15 kg·ng·h/mL/mg
Mean plasma AUClast, fold higher than Compound 1 (free acid) suspension [2, 16]: approximately 2 fold
Mean plasma Cmax, fold higher than Compound 1 (free acid) suspension [2, 16]: approximately 3 fold
Structure (SMILES): COC(=O)N[C@@H](Cc1ccccc1)C(=O)N[C@@H](Cc1ccc(NS(=O)(=O)O)cc1)c1csc(-c2cccs2)n1 [Compound 1 sodium salt]
relation of mild conjunctival congestion to the test article ([1]; repeated topical and subcutaneous dosing): appeared to be unrelated to the test article
general health [3]: normal health and activity; also recorded: No adverse effects
